Source: US20140193341A1, “HUMAN INDUCED NEURONAL CELLS” (priority 2011, published 2014)
Entries after “also recorded” stand apart in the source; their conditions may differ.

Tests used:
Format in all cases: cell-based, human
γ-secretase = experiment: Aβ ELISA of media from hiN cultures treated with γ-secretase inhibitor; details: DAPT 10 μM; hiN cell cultures
Procedure: APP ELISA was performed using a human APP ELISA kit (Invitrogen, Camarillo, Calif.), according to the manufacturer's instruction. Absorbance was read on a VersaMax ELISA Microplate Reader (Molecular Devices, Inc. Sunnyvale, Calif.) at 450 nm. The amount of APP was normalized to the total cell protein (determined with the DC Protein Assay Reagent kit; Bio-Rad, Hercules, Calif.). sAPPIβ and Aβ ELISA were performed on supernatant media from hiN cell cultures at 21 days after viral transduction. […] was performed using BetaMarkTM sAPP Beta ELISA kit (Covance, Princeton, N.J.), according to the manufacturer's instruction. The chemiluminescence was read on a microplate luminometer ([…] Plus, TECAN, Männedorf Switzerland). Aβ quantification was performed by ELISA as described previously (Cirrito et al., 2003). Media was conditioned for 48 hr prior to harvesting. Samples were analyzed for Aβ40 or Aβ42 using specific sandwich ELISAs. Briefly, Aβ40, and Aβ42 were captured using monoclonal antibodies targeted against amino acids 35-40 (HJ2.0), or 33-42 (HJ7.4) of Aβ, respectively. The antibodies HJ2.0, HJ5.1 and HJ7.4 were gifts from David M. Holtzman. […] All assays were developed using Super Slow ELISA TMB (Sigma) and read on a VersaMax ELISA Microplate Reader (Molecular Devices, Inc. Sunnyvale, Calif.) at 650 nm. […]

[1] = test system: APP-positive puncta in hiN cells; experiment: APP immunostaining of hiN cells, APP-positive puncta area per cell; details: DAPT 10 μM, 18 hr
Procedure: Cells were fixed in 4% paraformaldehyde for 10 min at room temperature, followed by rinsing 3 times with phosphate-buffered saline (PBS). Cells were then permeabilized with 0.1% Triton X-100 in 1×PBS for 10 min at room temperature. After again rinsing 3 times with PBS, cells were incubated with blocking buffer containing 10% goat serum and 10 mg/ml BSA at room temperature for 1 hr. All primary antibodies were diluted in PBS. Cells were incubated with primary antibodies as listed at 4° C. for 12-16 hr, followed by the corresponding secondary antibody solutions in 37° C. for 1 hr. Cells were rinsed with 1×PBS three times followed by mounting of coverslips with anti-fade solution (Invitrogen). […]
Imaging was performed by laser-scanning confocal microscopy with a 63×/1.4 objective (LSM510, Can Zeiss) or by epifluorescence microscope (Olympus 1×71; Japan). hiN cell counts and fluorescence intensities were quantified by taking 10 to 35 images of randomly selected views per well. Subsequently, images were analyzed for cell counts and fluorescent intensity using Image J 1.42q software (National Institute of Health, USA). […]

[2] = test system: hiN cells integrated into host brain; experiment: Voltage-clamp recording of transplanted hiN cells in acutely prepared mouse brain slices; details: for spontaneous excitatory postsynaptic currents (sEPSCs) under glutamatergic block: NBQX 20 μM and APV 50 μM
[3] = test system: AMPA and NMDA glutamatergic receptors; experiment: Glutamate puff evoked postsynaptic currents in hiN cells; details: glutamate 1 mM puff, NBQX 20 μM and APV 50 μM applied together
glutamatergic receptor = experiment: Spontaneous postsynaptic currents of hiN cells in murine glial coculture; details: hiN cells held at −70 mV, murine glial monolayer coculture; NBQX/APV bath application
secreted Aβ40 and Aβ42 = experiment: Aβ40/Aβ42 sandwich ELISA of hiN cell culture media with ibuprofen treatment; details: ibuprofen 250 μM
Procedure: sAPPβ ELISA was performed using BetaMar sAPP Beta ELISA, according to the manufacturer's instruction. Aβ quantification was performed by ELISAs (Cirrito et al., 2003). Media was conditioned for 48 hr prior to harvesting. Samples were analyzed for Aβ40 or Aβ42 using specific sandwich ELISAs. Briefly, Aβ40, and Aβ42 were captured using monoclonal antibodies targeted against amino acids 35-40 (HJ2.0), or 33-42 (HJ7.4) of Aβ, respectively. The antibodies HJ2.0, HJ5.1 and HJ7.4 were used. For Aβ40 and Aβ42 assays, a biotinylated central domain monoclonal antibody (HJ5.1) followed by streptavidin-poly-HRP-40 was used for detection. Assays were developed using Super Slow ELISA TMB and read on a VersaMax ELISA Microplate Reader. Aβ40, and Aβ42 standard curves were generated using purified peptides. The amount of Aβ was normalized to the cell density per well (relative to UND line as indicated in legend), and was expressed as pg/ml.

GABA receptors = experiment: GABA puff evoked currents in hiN cells; details: GABA 1 mM puff, picrotoxin 50 μM
sodium channel = test system: sodium channel
Na+ channel = test system: Na+ channel

With `C[C@H](NC(=O)Cc1cc(F)cc(F)c1)C(=O)N[C@H](C(=O)OC(C)(C)C)c1ccccc1` [DAPT] the “production of Aβ in media” value (γ-secretase) was “suppressed” and the “total APP-positive puncta area per cell, UND hiN cells” value [1] was “partially phenocopied; also recorded: significant increase”.

`N[C@H](CCCP(=O)(O)O)C(=O)O` [APV, D(−)-2-amino-5-phosphonovaleric acid] was tested, and the “spontaneous excitatory postsynaptic currents (sEPSCs) under glutamatergic block” value [2] was “suppressed; also recorded: drastically reduced”, the glutamate-mediated postsynaptic currents [3] was “could be blocked; also recorded: sensitive” and the “spontaneous postsynaptic currents in glial coculture” value (glutamatergic receptor) was “sensitive; also recorded: abolished”.

For `CC(C)Cc1ccc(C(C)C(=O)O)cc1` (centres unmarked) [ibuprofen], the “increased Aβ40 and Aβ42 generation in FAD hiN cell cultures” value (secreted Aβ40 and Aβ42; FAD (Presenilin mutant) hiN cell cultures) was “failed to suppress; also recorded: resistant” and the “elevated levels of secreted Aβ40 and Aβ42 in SAD hiN cell cultures” value (secreted Aβ40 and Aβ42; SAD hiN cell cultures) was “suppressed”.

With `NS(=O)(=O)c1cccc2c1c([N+](=O)[O-])cc1nc(O)c(O)nc12` [NBQX, 2,3-dihydroxy-6-nitro-7 sulphamoyl-benzo[f]quinoxaline-2,3-dione] the “spontaneous excitatory postsynaptic currents (sEPSCs) under glutamatergic block” value [2] was “suppressed; also recorded: drastically reduced”, the glutamate-mediated postsynaptic currents [3] was “could be blocked; also recorded: sensitive” and the “spontaneous postsynaptic currents in glial coculture” value (glutamatergic receptor) was “sensitive; also recorded: abolished”.

For picrotoxin, the “frequency and amplitude of spontaneous excitatory postsynaptic currents (sEPSCs)” value ([2]; picrotoxin 50 μM) was “increased in frequency and amplitude” and the GABA evoked currents (GABA receptors) was “sensitive”.

With `NC1=N[C@H](O)[C@H]2[C@H]3O[C@]4(O)O[C@@H]([C@@H](O)[C@@]2(N1)[C@@H]4O)[C@]3(O)CO` [tetrodotoxin] the depolarization-induced action potentials (sodium channel) was “could be inhibited; also recorded: could be blocked” and the “fast inward Na+ currents” value (Na+ channel) was “sensitive”.
